Measurements published in patent publication US7862642B2, “Extended-release urea-based granular fertilizer” (Georgia-Pacific Chemicals LLC, priority 2006, dated 2011).
Read-outs that look alike come from different tables or passages of the source.

Tested on: Kentucky bluegrass (Poa pratenis L.) turf stand
Conditions: visual scale 1-9 (1=no burn or discoloration, 6=moderate, 9=severe), 3 replications; for Mean Phytotoxicity Score DAT 3: 3 days after treatment; for Mean Phytotoxicity Score DAT 5: 5 days after treatment; for Mean Phytotoxicity Score DAT 13: 13 days after treatment; for Mean Phytotoxicity Score DAT 20: 20 days after treatment
Excerpt: SGN is defined as the median particle size (in millimeters), i.e., 50% of the particles (by weight) have a particle size above and below this number. The respective fertilizers were applied to a Kentucky bluegrass (Poa pratenis L.) turf stand at the Hancock Turfgrass Research Center on the campus of Michigan State University.
The experimental design was a randomized complete block design with 3 replications. Fertilizer treatments were applied at rates of 1, 2, and 6 lbs. Nitrogen/1000 ft^2. Treatments were applied with a hand shaker container over a 12 ft^2 area. Irrigation (0.25″ water) was not applied until 3 days after treatment application. Visual ratings were conducted on a scale 1-9 with 1=no burn or discoloration, 6=moderate burn or discoloration, and 9=severe burn or discoloration.

SMILES: NC(N)=O [UREA, urea]
- Mean Phytotoxicity Score DAT 3 (1 lb N/1000 ft^2): 1
- Mean Phytotoxicity Score DAT 5 (1 lb N/1000 ft^2): 1
- Mean Phytotoxicity Score DAT 13 (1 lb N/1000 ft^2): 1
- Mean Phytotoxicity Score DAT 20 (1 lb N/1000 ft^2): 1
- Mean Phytotoxicity Score DAT 3 (2 lb N/1000 ft^2): 2.3
- Mean Phytotoxicity Score DAT 5 (2 lb N/1000 ft^2): 3.7
- Mean Phytotoxicity Score DAT 13 (2 lb N/1000 ft^2): 2.3
- Mean Phytotoxicity Score DAT 20 (2 lb N/1000 ft^2): 1
- Mean Phytotoxicity Score DAT 3 (6 lb N/1000 ft^2): 7.7
- Mean Phytotoxicity Score DAT 5 (6 lb N/1000 ft^2): 8.2
- Mean Phytotoxicity Score DAT 13 (6 lb N/1000 ft^2): 7.7
- Mean Phytotoxicity Score DAT 20 (6 lb N/1000 ft^2): 4.0
